Measured values reported in ChEMBL document CHEMBL5143670, “Discovery and preclinical profile of LX-039, a novel indole-based oral selective estrogen receptor degrader (SERD)” (Bioorg Med Chem Lett, 2022).
pEC50, pIC50: −log10 of the molar value.

Assays:
[1] = Permeability of the compound from apical to basolateral side in human Caco-2 cells; format: ADME, cell-based; details: read-out: permeability
[2] = Protein binding in human plasma assessed as free fraction; format: ADME, cell-free
[3] = Toxicity in mouse xenografted with human MCF7 cells assessed as body weight change at 20 mg/kg, po administered once daily for 21 days; format: organism-based; details: in vivo, 504 h, time 21 day
MCF7 [4] = experiment: Antitumor activity against human MCF7 cells xenografted in mouse assessed as tumor growth inhibition at 20 mg/kg, po administered once daily for 21 days; format: functional; details: MCF7, 504 h, time 21 day, read-out: TGI
[5] = Binding affinity to estrogen receptor (unknown origin); set-up: species or system Homo sapiens
[6] = Induction of estrogen receptor degradation in human MCF7 cells incubated for 4 hrs by in-cell Western assay; format: cell-based; details: MCF7, 4 h
MCF7 [7] = experiment: Antiproliferative activity against human MCF7 cells measured after 5 days by CellTiter-GLo luminescent assay; format: functional, cell-based; details: MCF7, 120 h
[8] = Volume of distribution in iv dosed CD-1 mouse; format: ADME, organism-based; details: in vivo
[9] = Cmax in CD-1 mouse at 2.5 mg/kg, po; format: ADME, organism-based; set-up: dose 2.5 mg/kg, route po; details: in vivo
[10] = AUC (0 to 24 hrs) in CD-1 mouse at 2.5 mg/kg, po; format: ADME, organism-based; set-up: time < 24 hr, dose 2.5 mg/kg, route po; details: in vivo; for AUC(0-t) at 24 h: CD-1, mouse
[11] = Oral bioavailability in CD-1 mouse at 2.5 mg/kg; format: ADME, organism-based; details: in vivo; for bioavailability: CD-1, mouse
[12] = Permeability of the compound from basolateral to apical side in human Caco-2 cells; format: ADME, cell-based; details: read-out: permeability
[13] = Efflux ratio of apparent permeability from basolateral to apical side over apical to basolateral side in human Caco-2 cells; format: ADME, cell-based
[14] = Metabolic stability in mouse hepatocyte assessed as intrinsic clearance measured per 10^6 cells; format: ADME, cell-based; details: hepatocytes, read-out: CLH
[15] = Metabolic stability in rat hepatocytes assessed as intrinsic clearance measured per million cells; format: ADME, cell-based, Hepatocyte; details: read-out: CLH
[16] = Metabolic stability in dog hepatocytes assessed as intrinsic clearance measured per million cells; format: ADME, cell-based, Canis lupus familiaris, Hepatocyte; details: read-out: CLH
[17] = Metabolic stability in human hepatocytes assessed as intrinsic clearance measured per million cells; format: ADME, cell-based, Hepatocyte; details: read-out: CLH
Cytochrome P450 3A4 = Cytochrome P450 3A4 (Homo sapiens, UniProt P08684); experiment: Inhibition of CYP3A4 (unknown origin) using testosterone as substrate; format: ADME
Cytochrome P450 2C9 = Cytochrome P450 2C9 (Homo sapiens, UniProt P11712); experiment: Inhibition of CYP2C9 (unknown origin); format: ADME
Cytochrome P450 2C19 = Cytochrome P450 2C19 (Homo sapiens, UniProt P33261); experiment: Inhibition of CYP2C19 (unknown origin); format: ADME
Cytochrome P450 2D6 = Cytochrome P450 2D6 (Homo sapiens, UniProt P10635); experiment: Inhibition of CYP2D6 (unknown origin); format: ADME
Cytochrome P450 1A2 = biological target: T1, Cytochrome P450 1A2 (Homo sapiens, UniProt P05177); experiment: Inhibition of CYP1A2 (unknown origin); format: ADME
T1 sequence (P05177 whole entry): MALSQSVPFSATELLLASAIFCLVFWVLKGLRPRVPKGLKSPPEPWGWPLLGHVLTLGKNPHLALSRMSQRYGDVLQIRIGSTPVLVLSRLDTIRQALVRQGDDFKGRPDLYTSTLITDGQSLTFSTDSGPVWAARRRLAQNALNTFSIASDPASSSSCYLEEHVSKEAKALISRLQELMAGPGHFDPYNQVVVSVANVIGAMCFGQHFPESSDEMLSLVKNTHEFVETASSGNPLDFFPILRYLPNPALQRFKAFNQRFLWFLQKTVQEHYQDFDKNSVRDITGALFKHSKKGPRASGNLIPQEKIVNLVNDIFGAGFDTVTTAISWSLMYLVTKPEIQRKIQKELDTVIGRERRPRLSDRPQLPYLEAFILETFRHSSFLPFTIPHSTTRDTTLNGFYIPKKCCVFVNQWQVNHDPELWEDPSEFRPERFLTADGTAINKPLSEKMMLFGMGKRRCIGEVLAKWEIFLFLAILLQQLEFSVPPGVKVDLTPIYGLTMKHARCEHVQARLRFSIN

MCF7 [18] = experiment: Antitumor activity against human MCF7 cells xenografted in mouse assessed as tumor growth inhibition when administered orally once daily for 21 days; format: functional, cell-based; details: dose 6.5-60 mg/kg, route po, time 21.0 day, DDE = dose-dependent effect
MCF7 [19] = experiment: Antitumor activity against human MCF7 cells xenografted in mouse assessed as tumor shrinkage by measuring tumor growth inhibition at 60 mg/kg, po administered once daily for 21 days; format: functional; details: MCF7, 504 h, time 21 day, read-out: TGI
[20] = Toxicity in mouse xenografted with human MCF7 cells assessed as change in body weight at 6.5 to 60 mg/kg, po administered once daily for 21 days; format: organism-based; details: in vivo, 504 h, dose 6.5-60 mg/kg, time 21 day
MCF7 [21] = experiment: Antitumor activity against tamoxifen-resistant human MCF7 cells xenografted in mouse assessed as tumor growth inhibition at 200 mg/kg, po dosed once daily for 21 days relative to control; format: functional; details: MCF7, 504 h, time 21 day, read-out: TGI
[22] = Volume of distribution in iv dosed Sprague-Dawley rat; format: ADME, organism-based; details: in vivo
[23] = Clearance in iv dosed Sprague-Dawley rat; format: ADME, organism-based; details: in vivo
[24] = C0 in Sprague-Dawley rat at 1 mg/kg, iv; format: ADME, organism-based; details: in vivo
[25] = AUC (0 to 24 hrs) in Sprague-Dawley rat at 1 mg/kg, iv; format: ADME, organism-based; set-up: time < 24 hr, dose 1 mg/kg, route iv; details: in vivo
[26] = Cmax in Sprague-Dawley rat at 1 mg/kg, po; format: ADME, organism-based; set-up: dose 1 mg/kg, route po; details: in vivo
[27] = AUC (0 to 24 hrs) in Sprague-Dawley rat at 1 mg/kg, po; format: ADME, organism-based; set-up: time < 24 hr, dose 1 mg/kg, route po; details: in vivo
[28] = Oral bioavailability in Sprague-Dawley rat at 1 mg/kg; format: ADME, organism-based; details: in vivo
[29] = Volume of distribution in iv dosed Beagle dog; format: ADME, organism-based, Canis lupus familiaris; details: in vivo
[30] = Clearance in iv dosed Beagle dog; format: ADME, organism-based, Canis lupus familiaris; details: in vivo
[31] = C0 in Beagle dog at 1 mg/kg, iv; format: ADME, organism-based, Canis lupus familiaris; details: in vivo
[32] = AUC (0 to 24 hrs) in Beagle dog at 1 mg/kg, iv; format: ADME, organism-based, Canis lupus familiaris; set-up: time < 24 hr, dose 1 mg/kg, route iv; details: in vivo
[33] = Cmax in Beagle dog at 1 mg/kg, po; format: ADME, organism-based, Canis lupus familiaris; set-up: dose 1 mg/kg, route po; details: in vivo
[34] = AUC (0 to 24 hrs) in Beagle dog at 1 mg/kg, po; format: ADME, organism-based, Canis lupus familiaris; set-up: time < 24 hr, dose 1 mg/kg, route po; details: in vivo
[35] = Oral bioavailability in Beagle dog at 1 mg/kg; format: ADME, organism-based, Canis lupus familiaris; details: in vivo
[36] = Toxicity in Sprague-Dawley rat assessed as adverse effects at 500 mg/kg, po; format: organism-based; details: in vivo
[37] = Toxicity in Beagle dog assessed as adverse effects at 1000 mg/kg, po; format: organism-based, Canis lupus familiaris; details: in vivo
[38] = Genotoxicity in Salmonella typhimurium by Ames test; format: toxicity; details: salmonella enterica subsp. enterica serovar typhimurium
[39] = In vivo antagonist activity at estrogen receptor in immature CD-IGS rat assessed as inhibition of estradiol-induced uterine growth by measuring uterine wet weight pretreated with compound for 15 mins followed by estradiol addition administered orally for three days and measured on day 4 relative to control; format: functional; details: route po; time 4 day
MCF7 [40] = experiment: Antitumor activity against tamoxifen-resistant human MCF7 cells xenografted in mouse assessed as tumor growth inhibition at 3 mg, po dosed once daily for 21 days relative to control; format: functional; details: time 21 day
[41] = Clearance in iv dosed CD-1 mouse; format: ADME, organism-based; details: in vivo

Cytochrome P450 2D6, sequence (P10635 whole entry): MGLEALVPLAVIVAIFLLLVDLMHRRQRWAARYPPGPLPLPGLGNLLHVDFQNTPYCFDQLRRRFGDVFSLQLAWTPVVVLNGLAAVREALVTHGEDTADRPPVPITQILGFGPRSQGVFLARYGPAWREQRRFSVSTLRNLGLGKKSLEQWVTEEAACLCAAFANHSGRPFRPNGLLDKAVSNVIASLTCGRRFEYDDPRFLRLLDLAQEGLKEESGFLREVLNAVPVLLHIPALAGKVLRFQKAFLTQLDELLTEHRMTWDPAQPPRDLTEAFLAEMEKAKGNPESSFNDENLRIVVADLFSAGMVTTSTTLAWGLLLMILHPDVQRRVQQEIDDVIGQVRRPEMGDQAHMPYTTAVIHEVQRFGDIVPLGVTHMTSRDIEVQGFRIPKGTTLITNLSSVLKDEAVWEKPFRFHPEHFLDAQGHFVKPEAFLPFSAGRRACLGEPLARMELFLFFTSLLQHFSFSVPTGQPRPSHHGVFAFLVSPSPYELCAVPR
Cytochrome P450 2C19, sequence (P33261 whole entry): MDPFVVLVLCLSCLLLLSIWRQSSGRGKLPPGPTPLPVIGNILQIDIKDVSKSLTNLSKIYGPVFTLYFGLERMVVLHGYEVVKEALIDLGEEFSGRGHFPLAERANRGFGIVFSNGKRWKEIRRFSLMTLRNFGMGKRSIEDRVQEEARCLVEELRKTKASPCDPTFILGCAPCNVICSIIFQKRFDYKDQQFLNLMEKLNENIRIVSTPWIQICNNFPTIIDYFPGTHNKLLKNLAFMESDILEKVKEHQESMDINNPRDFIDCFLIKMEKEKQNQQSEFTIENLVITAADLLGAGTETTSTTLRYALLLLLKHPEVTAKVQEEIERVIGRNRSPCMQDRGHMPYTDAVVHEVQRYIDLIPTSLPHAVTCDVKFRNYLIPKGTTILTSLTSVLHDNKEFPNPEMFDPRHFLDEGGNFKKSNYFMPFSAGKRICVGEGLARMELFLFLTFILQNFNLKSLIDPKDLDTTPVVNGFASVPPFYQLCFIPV
Cytochrome P450 2C9, sequence (P11712 whole entry): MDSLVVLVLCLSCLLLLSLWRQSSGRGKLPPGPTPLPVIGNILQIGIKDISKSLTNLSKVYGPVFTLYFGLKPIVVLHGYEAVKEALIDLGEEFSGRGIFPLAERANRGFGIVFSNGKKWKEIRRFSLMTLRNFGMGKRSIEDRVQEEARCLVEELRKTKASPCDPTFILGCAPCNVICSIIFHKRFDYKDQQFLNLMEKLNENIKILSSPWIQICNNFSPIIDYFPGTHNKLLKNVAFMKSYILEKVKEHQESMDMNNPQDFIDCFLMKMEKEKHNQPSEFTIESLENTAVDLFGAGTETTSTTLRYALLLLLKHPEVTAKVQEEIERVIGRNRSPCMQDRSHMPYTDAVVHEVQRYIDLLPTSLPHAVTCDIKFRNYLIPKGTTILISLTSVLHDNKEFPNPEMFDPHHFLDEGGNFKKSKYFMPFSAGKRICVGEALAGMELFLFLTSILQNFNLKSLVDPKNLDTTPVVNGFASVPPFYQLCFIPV
Cytochrome P450 3A4, sequence (P08684 whole entry): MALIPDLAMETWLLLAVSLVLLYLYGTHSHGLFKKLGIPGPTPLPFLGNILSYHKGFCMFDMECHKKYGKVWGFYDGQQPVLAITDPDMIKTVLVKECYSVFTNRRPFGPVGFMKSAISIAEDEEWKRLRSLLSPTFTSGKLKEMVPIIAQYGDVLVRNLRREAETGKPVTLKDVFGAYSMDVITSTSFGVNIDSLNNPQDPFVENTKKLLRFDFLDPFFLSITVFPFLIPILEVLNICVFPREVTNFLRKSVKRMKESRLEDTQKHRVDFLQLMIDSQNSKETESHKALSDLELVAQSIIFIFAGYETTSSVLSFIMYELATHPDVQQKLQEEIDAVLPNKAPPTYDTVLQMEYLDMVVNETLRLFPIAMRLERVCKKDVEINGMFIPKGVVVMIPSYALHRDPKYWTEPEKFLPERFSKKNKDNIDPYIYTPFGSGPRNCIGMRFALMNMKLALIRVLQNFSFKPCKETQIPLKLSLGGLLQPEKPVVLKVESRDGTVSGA

CC/C(=C(/c1ccc(/C=C/C(=O)O)cc1)c1[nH]c2ccccc2c1Cl)c1ccc(F)cc1Cl
Papp A→B [1]: 0.94 ×10⁻⁶ cm/s
fraction unbound [2]: 0.051
Activity [3]: Non-Toxic
inhibition in vivo at 20 mg/kg (MCF7 [4]): 104%
pIC50 [5]: 9.00
pEC50 [6]: 8.64
pIC50 (MCF7 [7]): 8.42
Vd [8]: 0.5 L/kg
Cmax [9]: 1870 nM
AUC ([10]; mouse, 24 h): 15.329 µM·h
F ([11]; mouse, po, 2.5 mg/kg): 60.1%
Papp B→A [12]: 1.25 ×10⁻⁶ cm/s
efflux ratio [13]: 1.32
hepatocyte CLint [14]: 9.8 µL/min/1e6 cells
hepatocyte CLint [15]: 11.1 µL/min/1e6 cells
hepatocyte CLint [16]: 8.6 µL/min/1e6 cells
hepatocyte CLint [17]: 15.2 µL/min/1e6 cells
pIC50 (Cytochrome P450 3A4): 5.15
pIC50 (Cytochrome P450 2C9): 5.29
pIC50 (Cytochrome P450 2C19): 5.00
pIC50 (Cytochrome P450 2D6): 4.84
pIC50 (Cytochrome P450 1A2): 5.11
inhibition (MCF7 [18]): Dde
inhibition in vivo at 60 mg/kg (MCF7 [19]): 113%
Activity [20]: Non-Toxic
inhibition in vivo at 200 mg/kg (MCF7 [21]): 91%
Vd [22]: 2 L/kg
clearance [23]: 7.7 mL/min/kg
C0 [24]: 2610 nM
AUC(0-t) at 24 h [25]: 4.82 µM·h
Cmax [26]: 381 nM
AUC(0-t) at 24 h [27]: 2.7 µM·h
bioavailability [28]: 56%
Vd [29]: 0.42 L/kg
clearance [30]: 0.84 mL/min/kg
C0 [31]: 12800 nM
AUC(0-t) at 24 h [32]: 43.8 µM·h
Cmax [33]: 2550 nM
AUC(0-t) at 24 h [34]: 24.2 µM·h
bioavailability [35]: 55%
Activity [36]: Non-Toxic
Activity [37]: Non-Toxic
Activity [38]: Non-Toxic
inhibition (INH) [39]: 94%

C[C@]12CC[C@@H]3c4ccc(O)cc4C[C@@H](CCCCCCCCC[S+]([O-])CCCC(F)(F)C(F)(F)F)[C@H]3[C@@H]1CC[C@@H]2O (stereo not given in full) [FULVESTRANT]
TGI (MCF7 [40]): 66%

CC/C(=C(/c1ccc(/C=C/C(=O)O)cc1)c1ccc2[nH]ncc2c1)c1ccc(F)cc1Cl [BRILANESTRANT]
inhibition (INH) [39]: 65%

CC/C(=C(/c1ccc(/C=C/C(=O)O)cc1)c1[nH]c2ccccc2c1C#N)c1ccc(F)cc1Cl
pIC50 [5]: 9.64
pEC50 [6]: 8.59
pIC50 (MCF7 [7]): 8.31
Vd [8]: 4.28 L/kg
clearance [41]: 104 mL/min/kg
Cmax [9]: 35 nM
AUC(0-t) at 24 h [10]: 0.049 µM·h
bioavailability [11]: 6.21%

CC/C(=C(/c1ccc(/C=C/C(=O)O)cc1)c1[nH]c2ccccc2c1C)c1ccc(F)cc1Cl
pEC50 [6]: 8.90
pIC50 (MCF7 [7]): 8.32

CC/C(=C(/c1ccc(/C=C/C(=O)O)cc1)c1[nH]c2ccccc2c1Cl)c1ccccc1C(F)(F)F
pIC50 [5]: 9.09
pEC50 [6]: 8.00
pIC50 (MCF7 [7]): 7.89

CC/C(=C(/c1ccc(/C=C/C(=O)O)cc1)c1[nH]c2ccccc2c1Br)c1ccc(F)cc1Cl
pIC50 [5]: 9.18
pEC50 [6]: 8.61
pIC50 (MCF7 [7]): 8.07

CC/C(=C(/c1ccc(/C=C/C(=O)O)cc1)c1[nH]c2ccccc2c1Cl)c1ccc(Cl)cc1C#N
Activity [3]: Non-Toxic
pIC50 [5]: 9.64
pEC50 [6]: 9.13
pIC50 (MCF7 [7]): 9.01
Vd [8]: 4.48 L/kg
clearance [41]: 29.7 mL/min/kg
Cmax [9]: 246 nM
AUC(0-t) at 24 h [10]: 0.883 µM·h
bioavailability [11]: 33.7%

CC/C(=C(/c1ccc(/C=C/C(=O)O)cc1)c1[nH]c2ccccc2c1Cl)c1cc(Cl)sc1Cl
pIC50 [5]: 8.75
pEC50 [6]: 8.29
pIC50 (MCF7 [7]): 7.70

CC/C(=C(/c1ccc(/C=C/C(=O)O)cc1)c1[nH]c2ccccc2c1Cl)c1ccsc1C#N
pIC50 [5]: 9.74
pEC50 [6]: 8.65
pIC50 (MCF7 [7]): 8.12

CC/C(=C(/c1ccc(/C=C/C(=O)O)cc1)c1cc2ccccc2[nH]1)c1ccc(F)cc1Cl
pIC50 [5]: 8.80
pEC50 [6]: 7.41
pIC50 (MCF7 [7]): 7.68
